A value given as a limit tells only on which side of the number the result lay.

Here are results for 13 compounds from patent US4977273A, “Fluorine-containing 2-nitroimidazole derivatives” (Kyoto University of Honmachi, priority 1988, dated 1990).

System in the first data set: not listed separately
Kind of data set: in vivo. Particulars: mouse, female ICR mice of 5 weeks.
What is called LD50 is the dose expected to kill half of the subjects tested. A higher LD50 goes with a less toxic substance. In turn, `O=[N+]([O-])c1nccn1CC(F)COCC(O)CO` (stereo not drawn) [(1), 1-(2'-fluoro-4'-oxa-6',7'-dihydroxyheptyl)-2-nitroimidazole] yielded an LD50 of 2700 mg/kg.

`NC(=O)CCNC(=O)C(F)(F)Cn1ccnc1[N+](=O)[O-]` [(22), 3-[3'-(2"-nitroimidazolyl)-2',2'-difluoropropionylamino]propionic acid amide]: the LD50 turned out to be 2800 mg/kg.

In the case of `NC(=O)C(F)(F)CNC(=O)C(F)(F)Cn1ccnc1[N+](=O)[O-]` [(24), 3-[3'-(2"-nitroimidazolyl)-2',2'-difluoropropionylamino]-2,2-difluoropropionic acid amide], the LD50 was 2600 mg/kg.

For the compound `NC(=O)C(F)(F)Cn1ccnc1[N+](=O)[O-]` [(28), 3-(2'-nitroimidazolyl)-2,2-difluoropropionic acid amide], the LD50 was 1100 mg/kg.

`O=C(COCC(F)(F)Cn1ccnc1[N+](=O)[O-])NCCO` [(43), 2[3'-(2"-nitroimidazolyl)-2',2'-difluoropropoxy]acetic acid hydroxyethylamide] had an LD50 above 2000 mg/kg.

Compound `O=C(NCCO)C(F)(F)COCC(F)(F)Cn1ccnc1[N+](=O)[O-]` [(45), 3-[3'-(2"-nitroimidazolyl)-2',2'-difluoropropoxy]-2,2-difluoropropionic acid hydroxyethylamide] returned an LD50 above 1600 mg/kg.

For the compound `O=C(CCNC(=O)C(F)(F)Cn1ccnc1[N+](=O)[O-])NCCO` [(47), 3-[3'-(2"-nitroimidazolyl)-2',2'-difluoropropionamido]propionic acid hydroxyethylamide], the LD50 was above 2000 mg/kg.

In turn, `NC(=O)CNC(=O)C(F)(F)Cn1ccnc1[N+](=O)[O-]` [(48)] showed an LD50 of 2200 mg/kg.

Compound `COC(=O)OCCNC(=O)C(F)(F)Cn1ccnc1[N+](=O)[O-]` [(51), methyl 3-(2'-nitroimidazolyl)-2,2-difluoropropionamidoethoxyformate] yielded an LD50 above 3000 mg/kg.

The subject of a further data set is hypoxic cells.
Experiment: not given
The following applies: compared with no Misonidazole; cited from earlier work.
On to `COCC(O)Cn1ccnc1[N+](=O)[O-]` (stereo not drawn) [Comparative (1), 1-(2-Nitro-1-imidazolyl)-3-methoxy-2-propanol], for which the “hypoxic cell sensitizing effectiveness” value is “about twice as effective as when no Misonidazole is used”.

The subject of a further data set is Chinese hamster V-79 cells. As to the kind of experiment: Radiosensitization effect on cells (ER in vitro). It counts as cell-based. Particulars: 1.0 mM, 60 min at 37° C., nitrogen (hypoxic), X-ray 1.6 Gy/min. How it is done:
Radiosensitization effect on cells (ER in vitro)
A solution of a predetermined concentration (1.0 mM) of a compound to be examined in a medium was added to the dish. After standing for 60 minutes at 37° C., the dish was placed in a closed vessel at room temperature.
After the irradiation, the cells were washed with phosphate buffer and digested with trypsin into single cells. Then, a predetermined amount of the cells was introduced into 5 ml of a culture medium in a culture dish and cultured for 7 days at 37° C. After staining and washing with water, the number of colonies formed was counted.
For comparison, the irradiation was carried out in the nitrogen atmosphere or in the air after adding the medium without the test compound.
For the compound `O=[N+]([O-])c1nccn1CC(F)COCC(O)CO` (stereo not drawn) [(1), 1-(2'-fluoro-4'-oxa-6',7'-dihydroxyheptyl)-2-nitroimidazole], the ER in vitro is reported as 1.49.

In the case of `O=[N+]([O-])c1nccn1CC(F)COCCO` (stereo not drawn) [(11), 1-(2'-fluoro-4'-oxa-6'-hydroxyhexcyl)-2-nitroimidazole], the ER in vitro was found to be 1.66.

Turning to `NC(=O)CCNC(=O)C(F)(F)Cn1ccnc1[N+](=O)[O-]` [(22), 3-[3'-(2"-nitroimidazolyl)-2',2'-difluoropropionylamino]propionic acid amide], the ER in vitro was 1.46.

Regarding `NC(=O)C(F)(F)CNC(=O)C(F)(F)Cn1ccnc1[N+](=O)[O-]` [(24), 3-[3'-(2"-nitroimidazolyl)-2',2'-difluoropropionylamino]-2,2-difluoropropionic acid amide], the ER in vitro was 1.76.

As to `NC(=O)C(F)(F)Cn1ccnc1[N+](=O)[O-]` [(28), 3-(2'-nitroimidazolyl)-2,2-difluoropropionic acid amide], the ER in vitro is given as 1.48.

As for `O=C(COCC(F)(F)Cn1ccnc1[N+](=O)[O-])NCCO` [(43), 2[3'-(2"-nitroimidazolyl)-2',2'-difluoropropoxy]acetic acid hydroxyethylamide], the ER in vitro worked out at 1.54.

`O=C(COCC(F)(F)Cn1ccnc1[N+](=O)[O-])NO` [(44)]: the ER in vitro turned out to be 1.68.

In the case of `O=C(NCCO)C(F)(F)COCC(F)(F)Cn1ccnc1[N+](=O)[O-]` [(45), 3-[3'-(2"-nitroimidazolyl)-2',2'-difluoropropoxy]-2,2-difluoropropionic acid hydroxyethylamide], the ER in vitro is 1.63.

As for `NC(=O)C(F)(F)COCC(F)(F)Cn1ccnc1[N+](=O)[O-]` [(46), 3-[3'-(2"-nitroimidazolyl)-2',2'-difluoropropoxy]2,2-difluoropropionylamide], the ER in vitro was determined as 1.58.

`O=C(CCNC(=O)C(F)(F)Cn1ccnc1[N+](=O)[O-])NCCO` [(47), 3-[3'-(2"-nitroimidazolyl)-2',2'-difluoropropionamido]propionic acid hydroxyethylamide]: the ER in vitro was determined as 1.43.

Consider `NC(=O)CNC(=O)C(F)(F)Cn1ccnc1[N+](=O)[O-]` [(48)], for which the ER in vitro amounted to 1.61.

Regarding `COCC(O)Cn1ccnc1[N+](=O)[O-]` (stereo not drawn) [Comparative (1), 1-(2-Nitro-1-imidazolyl)-3-methoxy-2-propanol], the ER in vitro is 1.50.

System in the next data set: not given
Experiment: not given
Particulars: hardly administered in an effective amount; cited from earlier work.
As for `COCC(O)Cn1ccnc1[N+](=O)[O-]` (stereo not drawn) [Comparative (1), 1-(2-Nitro-1-imidazolyl)-3-methoxy-2-propanol], the neurotoxicity result is recorded as “strong neurotoxicity”.

System in another data set: not given
Experiment: not given
Particulars: administered in human beings; cited from earlier work.
Regarding `COCC(O)Cn1ccnc1[N+](=O)[O-]` (stereo not drawn) [Comparative (1), 1-(2-Nitro-1-imidazolyl)-3-methoxy-2-propanol], the “sensitizing effect in human beings” value is given as “No sensitizing effect was confirmed”.

The subject of a further data set is EMT-6 tumor cells. Kind of data set: Radiosensitization effect on tumor transplanted in animal (ER in vivo). On the set-up: species or system male Bal/c mouse. Particulars: EMT-6 tumor in mouse, 100 mg/kg intraperitoneal, X-ray after 40 minutes at 450 rad/min. for 5 minutes. The protocol:
Radiosensitization effect on tumor transplanted in animal (ER in vivo)
To both thighs of male Bal/c mouse (8 weeks; 4 mice in a group), 10^5 of EMT-6 tumor cells were subcutaneously inoculated. After the diameter of the tumor reached about 1 cm, a solution of a compound to be examined in saline in an amount of 100 mg of the compound per kg was intraperitonealy administered. After 40 minutes, X-ray was irradiated at 450 rad/min. for 5 minutes and then the mouse was sacrificed.
After the whol body of the mouse was sterilized with 70% ethanol, the tumor was taken out. The tissue was homogenized and then digested by stirring for 50 minutes at 37° C. with adding 22 ml of trypsin. The number of cells in the supernatant was counted. A predetermined amount of the cells was introduced in a plastic plate having a diameter of about 5 cm. To the plate, 5 ml of medium was added and cultured in a CO2 incubator. The plate containing the irradiated cells was removed from the incubator after 9 days, while a comparison dish containing unirradiated cells was incubated for 10 days. The cells were fixed by methanol and strained by Giemsa stain. Then, the number of colonies formed were counted.
The survival rate was calculated with using the data of the unirradiated cells as control.
Consider `O=[N+]([O-])c1nccn1CC(F)COCC(O)CO` (stereo not drawn) [(1), 1-(2'-fluoro-4'-oxa-6',7'-dihydroxyheptyl)-2-nitroimidazole], for which the ER in vivo was 1.38.

For the compound `O=[N+]([O-])c1nccn1CC(F)COCCO` (stereo not drawn) [(11), 1-(2'-fluoro-4'-oxa-6'-hydroxyhexcyl)-2-nitroimidazole], the ER in vivo was found to be 1.52.

On to `NC(=O)CCNC(=O)C(F)(F)Cn1ccnc1[N+](=O)[O-]` [(22), 3-[3'-(2"-nitroimidazolyl)-2',2'-difluoropropionylamino]propionic acid amide], for which the ER in vivo came out at 1.58.

Take `NC(=O)C(F)(F)CNC(=O)C(F)(F)Cn1ccnc1[N+](=O)[O-]` [(24), 3-[3'-(2"-nitroimidazolyl)-2',2'-difluoropropionylamino]-2,2-difluoropropionic acid amide]: the ER in vivo was 1.41.

Consider `NC(=O)C(F)(F)Cn1ccnc1[N+](=O)[O-]` [(28), 3-(2'-nitroimidazolyl)-2,2-difluoropropionic acid amide], for which the ER in vivo came to 1.32.

With `O=C(COCC(F)(F)Cn1ccnc1[N+](=O)[O-])NCCO` [(43), 2[3'-(2"-nitroimidazolyl)-2',2'-difluoropropoxy]acetic acid hydroxyethylamide], the ER in vivo was 1.38.

For the compound `O=C(COCC(F)(F)Cn1ccnc1[N+](=O)[O-])NO` [(44)], the ER in vivo worked out at 1.48.

For `O=C(NCCO)C(F)(F)COCC(F)(F)Cn1ccnc1[N+](=O)[O-]` [(45), 3-[3'-(2"-nitroimidazolyl)-2',2'-difluoropropoxy]-2,2-difluoropropionic acid hydroxyethylamide], the ER in vivo worked out at 1.40.

Take `NC(=O)C(F)(F)COCC(F)(F)Cn1ccnc1[N+](=O)[O-]` [(46), 3-[3'-(2"-nitroimidazolyl)-2',2'-difluoropropoxy]2,2-difluoropropionylamide]: the ER in vivo is listed as 1.45.

Regarding `O=C(CCNC(=O)C(F)(F)Cn1ccnc1[N+](=O)[O-])NCCO` [(47), 3-[3'-(2"-nitroimidazolyl)-2',2'-difluoropropionamido]propionic acid hydroxyethylamide], the ER in vivo was found to be 1.38.

As to `NC(=O)CNC(=O)C(F)(F)Cn1ccnc1[N+](=O)[O-]` [(48)], the ER in vivo came out at 1.49.

`COCC(O)Cn1ccnc1[N+](=O)[O-]` (stereo not drawn) [Comparative (1), 1-(2-Nitro-1-imidazolyl)-3-methoxy-2-propanol]: the ER in vivo came out at 1.43.
